# Assays:
# [1] = Selectivity ratio for inhibition of Protein phosphatase 1 and Protein phosphatase 2A
# [2] = Inhibition of protein phosphatase 1 (PP1) was determined by standard phosphorylase a inhibition assay; design: species or system Oryctolagus cuniculus
SMILES,Selectivity ratio [1],IC50 [2] [µM]
CO[C@@H]([C@H](O)CC(=O)[C@@H](C)[C@@H](O)CC[C@@H](C)[C@@H]1O[C@]2(CC[C@@H](C)[C@H](CC[C@H](C)C(C)=O)O2)CC[C@@H]1C)[C@H](OC(=O)C[C@H](O)C1=C(C)C(=O)OC1=O)C(C)C,,0.13
CO[C@H]([C@H](O)CC(=O)[C@@H](C)[C@@H](O)CC[C@@H](C)[C@@H]1O[C@]2(CC[C@@H](C)[C@H](CC[C@H](C)C(C)=O)O2)CC[C@@H]1C)[C@H](OC(=O)C[C@@H](O)C1=C(C)C(=O)OC1=O)C(C)C [TAUTOMYCIN],,1.9
CO[C@@H]([C@H](O)CC(=O)[C@@H](C)[C@@H](O)CC[C@@H](C)[C@@H]1O[C@]2(CC[C@@H](C)[C@H](CC[C@H](C)C(C)=O)O2)CC[C@@H]1C)[C@H](OC(=O)C[C@@H](O)/C=C(\C)C(=O)O)C(C)C,1.9,2.1

# The next lines start with the values.
Selectivity ratio [1],IC50 [2] [µM],SMILES
1.5,19,CO[C@@H]([C@H](O)CC(=O)[C@@H](C)[C@@H](O)CC[C@@H](C)[C@@H]1O[C@]2(CC[C@@H](C)[C@H](CC[C@H](C)C(C)=O)O2)CC[C@@H]1C)[C@H](OC(=O)C[C@](C)(O)C(=O)O)C(C)C
2,150,CO[C@@H]([C@H](O)CC(=O)[C@@H](C)[C@@H](O)CC[C@@H](C)[C@@H]1O[C@]2(CC[C@@H](C)[C@H](CC[C@H](C)C(C)=O)O2)CC[C@@H]1C)[C@H](OC(=O)CCCP(=O)(O)O)C(C)C
1.3,80,CO[C@@H]([C@H](O)CC(=O)[C@@H](C)[C@@H](O)CC[C@@H](C)[C@@H]1O[C@]2(CC[C@@H](C)[C@H](CC[C@H](C)C(C)=O)O2)CC[C@@H]1C)[C@H](OC(=O)C[C@@](C)(O)C(=O)O)C(C)C

# Source: ChEMBL document CHEMBL1145771 (Bioorg Med Chem Lett, 2003)
